According to paper PMC6332040, “Synthesis, Density Functional Theory (DFT), Urease Inhibition and Antimicrobial Activities of 5-Aryl Thiophenes Bearing Sulphonylacetamide Moieties” (Molecules, 2015):
Where “and” joins values, the source holds several entries; their conditions need not be identical. Equal values may be shown once.

What was measured:
[1] = molecular target: Jack bean urease enzyme (Canavalia ensiformis, UniProt P07374); experiment: biochemical; assay type: biochemical; settings: pH 6.8
Jack bean urease enzyme, sequence (P07374 whole entry, looked up): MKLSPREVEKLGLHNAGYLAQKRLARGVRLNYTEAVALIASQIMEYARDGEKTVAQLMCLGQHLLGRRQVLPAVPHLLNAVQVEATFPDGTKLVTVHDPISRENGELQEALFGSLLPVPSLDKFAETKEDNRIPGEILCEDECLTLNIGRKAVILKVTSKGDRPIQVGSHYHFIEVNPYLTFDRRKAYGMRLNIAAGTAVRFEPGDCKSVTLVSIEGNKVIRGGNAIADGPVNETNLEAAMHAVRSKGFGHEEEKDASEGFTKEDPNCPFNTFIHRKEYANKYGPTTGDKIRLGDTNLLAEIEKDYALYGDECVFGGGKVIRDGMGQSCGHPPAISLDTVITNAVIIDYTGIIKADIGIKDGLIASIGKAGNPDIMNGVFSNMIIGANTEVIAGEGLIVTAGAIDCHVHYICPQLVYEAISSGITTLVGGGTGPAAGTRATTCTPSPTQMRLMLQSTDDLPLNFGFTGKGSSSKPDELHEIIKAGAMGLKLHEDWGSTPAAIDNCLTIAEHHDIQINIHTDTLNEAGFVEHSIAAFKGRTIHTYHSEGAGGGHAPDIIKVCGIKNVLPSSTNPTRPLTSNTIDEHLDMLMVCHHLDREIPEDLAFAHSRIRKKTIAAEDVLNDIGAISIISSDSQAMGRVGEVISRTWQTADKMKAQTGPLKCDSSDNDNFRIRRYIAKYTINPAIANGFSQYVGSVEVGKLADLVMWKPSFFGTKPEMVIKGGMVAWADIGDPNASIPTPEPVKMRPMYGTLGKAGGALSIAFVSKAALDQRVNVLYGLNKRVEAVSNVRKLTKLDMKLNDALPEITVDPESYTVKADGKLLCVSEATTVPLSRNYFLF
Protocol: Urease is an enzyme which converts urea to ammonium carbonate and is used as a diagnostic tool to establish the presence of different pathogens in the urinary and gastrointestinal tract. The percentage activity values of urease enzyme of compounds 4a–d were measured at 50 µg/mL and 250 µg/mL (Table 5), whereas, for compounds 4e–g, the percentage activity values of urease enzyme were measured at 15, 40 and 80 µg/mL, respectively (Table 6).
Jack bean urease enzyme (25 µL) was added in buffer solution (55 µL) containing 100 mM urea to prepare the stock solution. This mixture was then incubated with 5 µL (0.5 mM concentration) of the newly synthesized compounds for 15 min at 30 °C in 96-well plates. Anti-urease activity was resolved by knowing the production of ammonia using the indophenol method. Concisely, in each well, phenol reagent (45 µL, 0.005% w/v sodium nitroprusside and 1% w/v phenol) was added in addition to the alkali reagent (70 µL, NaOH 0.5% w/v and 0.1% NaOCl). After 50 min, the increase in absorbance was measured at 630 nm using a micro plate reader. All reactions were carried out in triplicate to obtained 200 µL final volume. The Softmax pro software was used to obtain the results as change in absorbance per minute. All assays were carried out at a specific pH of 6.8. The following formula was used to calculate the % inhibition: 100 − (OD test well/OD control) × 100(3)
Thiourea was used as standard inhibitor of urease. The EZ-fit kinetic data base was used to determine IC50 values. In the case of colored compounds, sample blanks were also prepared. Absorbance of sample blanks was subtracted from the absorbance of samples to get the corrected absorbance of the samples. Corrected absorbance of sample was used to calculate % age inhibition.

[2] = IC50, urease, Table 6 series (4e–g)
[3] = IC50, urease, Table 5 series (4a–d)

SMILES	IC50 [1, 2]	Percent urease inhibition ([1]; urease inhibition at 15 µg/mL)	Percent urease inhibition ([1]; urease inhibition at 40 µg/mL)	Percent urease inhibition ([1]; urease inhibition at 80 µg/mL)	melting point	IC50 [1, 3]	Percent urease inhibition ([1]; urease inhibition at 50 µg/mL)	Percent urease inhibition ([1]; urease inhibition at 250 µg/mL)	IC50 ([1]; urease, Table 5 series (4a–d))	IC50 ([1]; urease, Table 6 series (4e–g))
CC(=O)NS(=O)(=O)c1ccc(-c2cc(C)cc(C)c2)s1 [Compound 4e]	57.9 µM	44.59 ± 0.14%	91.21 ± 0.81%	92.88 ± 0.14%	148 to 149 °C					
CC(=O)NS(=O)(=O)c1ccc(-c2ccc(Cl)cc2)s1 [Compound 4g]	73.8 µM	46.23 ± 0.11%	90.97 ± 0.18%	68 ± 0.02%	167 to 170 °C					
CC(=O)NS(=O)(=O)c1ccc(-c2ccc(C)s2)s1 [Compound 4f]	~56.7 µM and 56.7 µM	42.44 ± 0.11%	92.12 ± 0.21%	94.66 ± 0.11%	167 to 168.4 °C					
CC(=O)NS(=O)(=O)c1ccc(-c2ccc(C)cc2)s1 [Compound 4d]					161 to 163 °C	738 µM	13.34 ± 0.007%	54 ± 0.004%		
CC(=O)NS(=O)(=O)c1ccc(-c2ccc(Cl)c(Cl)c2)s1 [Compound 4c]					148 to 150 °C	~121 µM and 121 µM	54.4 ± 0.002%	78 ± 0.003%		
CC(=O)NS(=O)(=O)c1ccc(-c2cc(C(F)(F)F)cc(C(F)(F)F)c2)s1 [Compound 4b, N-((5-(3,5-Bis(trifluoromethyl)phenyl)thiophen-2-yl)sulfonyl)acetamide]					168 °C	~197 µM and 197 µM	29.98 ± 0.034%	56 ± 0.006%		
CC(=O)NS(=O)(=O)c1ccc(-c2ccccc2)s1 [Compound 4a]					158 to 160 °C	~136 µM and 136 µM	67.56 ± 0.007%	89 ± 0.01%		
NC(N)=S [Standard, Thiourea, reference compound]		47.1 ± 0.31%	65 ± 0.01%				60 ± 0.032%	95 ± 0.09%	43 ± 0.38 µg/mL	23.3 µg/mL
